Entries after “also recorded” stand apart in the source; their conditions may differ. Where no end group is shown, it is not given here. [ ]: non-standard residue; d: D form.

Test [1] has as its system CAL 27 (high EGFR) and SCC-15 (low EGFR) oral cancer cells. Briefly: Fluorescence microscopy of DY547-siCIP2A uptake in co-culture of high- and low-EGFR oral cancer cells. Format: cell-based, human. Conditions: co-culture CAL 27 and SCC-15, 4 hours, 100 nM D-siCIP2A. The method, then:
Fluorescence microscopy analysis was performed after co-culture of CAL 27 (high EGFR) and SCC-15 (low EGFR) oral cancer cells incubated for 4 hours with 100 nM of DY547-conjugated siRNA targeting CIP2A (D-siCIP2A; red) in complex with GE11R9 peptide at 100:1 and 60:1 (GE11R9:siRNA) molar ratios. SCC-15 cells were stained for vimentin (green) and nuclei (blue) were counterstained with DAPI.
Fluorescence microscopy analysis of the co-culture of CAL 27 (high EGFR) and SCC-15 (low EGFR) oral cancer cells incubated for 4 hours with 100 nM of DY547-conjugated siRNA targeting CIP2A (D-siCIP2A; red) in complex with GE11R9 and 599 peptides at various molar ratios (FIGS. 3A & 3B). SCC-15 cells were stained for vimentin (green) and nuclei (blue) were counterstained with DAPI

Another test concerns CIP2A. The experiment in a line: Western blot analysis of CIP2A protein expression levels in CAL 27 OSCC cells. The following applies: CAL 27 cells, 48 hours post-treatment, 100 nM siCIP2A vs siNT. Type of test: cell-based, human. The protocol: Western blot analysis of CIP2A protein expression levels in CAL 27 OSCC cells was performed 48 hours post-treatment with GE11R9 peptide complexed to either 100 nM of siNT or siCIP2A at a 60:1 or 100:1 peptide-to-siRNA molar ratio compared to 599 peptide at a 50:1 molar ratio. β-Actin protein levels were monitored to ensure equal loading of samples.
FIG. 4 is a Western blot analysis of CIP2A protein expression levels in CAL 27 OSCC cells performed 48 hours post-treatment with dual peptide complexed to either 100 nM of siNT or siCIP2A at various GE11R9:599:siRNA molar ratios. β-Actin protein levels were monitored to ensure equal loading of samples.
For orientation: A western blot detects proteins with antibodies after separation by electrophoresis.

For the substance “GE11R9: EGFR-targeting peptide: GE11 sequence modified with a nona(D-arginine) stretch (R9) and a C-terminal Lysine (YHWYGYTPQNVIGGGG[dR][dR][dR][dR][dR][dR][dR][dR][dR]K)”, the “targeting / specific uptake of siRNA into high-EGFR versus low-EGFR cells” value in test [1] is “deliver siRNAs specifically to EGFR-overexpressing oral cancer cells; also recorded: specifically targets”. Further, in the test with CIP2A, the “delivery of bioactive siRNA (siCIP2A functionality, CIP2A protein expression)” value is recorded as “not capable of mediating the delivery of bioactive siRNAs; also recorded: does not deliver bioactive siRNAs; also recorded: not able to mediate the delivery of bioactive siRNAs”.

The values above are taken from patent US20160271258A1, “Dual Peptide-Mediated Targeted Delivery System” (MUSC FOUNDATION FOR RESEARCH DEVELOPMENT, priority 2015, published 2016).
